Assay results as given in patent US12371463B2, “Methods and compositions for treatment of antibiotic-resistant bacterial infections” (University of Pittsburgh—Of the Commonwealth System of …, priority 2021, dated 2025).
Ends that are not written are not given here.

Legend:
[1] = tested on: P. aeruginosa and S. aureus biofilms; conditions: cited from earlier work
[2] = tested on: P. aeruginosa (PA14 mutS:T114P); experiment: Experimental evolution with hypermutator ancestor, population survival; format: cell-based
Text: In the second experiment, 5 planktonic populations and 5 biofilm populations under the same conditions described above, and a mutator strain of P. aeruginosa (PA14 mutS:T114P), obtained from Flynn et al. (“Evolution of Ecological Diversity in Biofilms of Pseudomonas aeruginosa by Altered Cyclic Diguanylate Signaling.” J. Bacteriol., 2016, 198:2608-2618). Additionally, 3 planktonic populations and 3 biofilm populations of the hypermutant strain in the absence of antibiotic (e.g., WLBU2 (SEQ ID NO: 1)) pressure were propagated. Hypermutant strains of bacteria, such as P. aeruginosa, can develop in patients, and may be characterized as having increased mutation rates, e.g., up to 1,000-fold, as compared to wild-type bacteria, such as P. aeruginosa (see, e.g., Maciá, Maria D et al. “Hypermutation is a key factor in development of multiple-antimicrobial resistance in Pseudomonas aeruginosa strains causing chronic lung infections.” Antimicrobial agents and chemotherapy vol. 49, 8 (2005): 3382-6).
(§1) The planktonic propagations were serially passaged through 50 uL into 5 mL of M9+(dilution factor 100) which corresponds to approximately 6.66 generations per day. For the biofilm populations, a polystyrene bead (Polysciences, Inc., Warrington, PA) was transferred to fresh media containing 3 sterile beads. Each bead was rinsed in phosphate buffered saline (PBS) before the transfer to reduce the transfer planktonic cells. Each day, black and white marked beads were alternated, ensuring that the bacteria were growing on the bead for 24 hours, which corresponds to 6 to 7.5 generations/day.
Increasing mutation supply by using hypermutator strain promotes evolution resistance: A method to increase mutation supply during evolution experiments was to use an ancestral strain with a higher mutation rate. These mutator genotypes commonly evolve during chronic infections of P. aeruginosa and therefore relevant to antimicrobial resistance (AMR) evolution. […]

[3] = tested on: P. aeruginosa PA14 mutS mutator strain and populations evolved from it; experiment: MIC by broth microdilution (CLSI), mutator ancestor and mutator-derived evolved populations; format: cell-based; conditions: FIG. 3A, mutS-derived populations and clones from WT ancestor, p<0.05 one-way ANOVA
Protocol: Phenotypic characterization: antimicrobial susceptibility and aggregation assay: The MIC to WLBU2 (SEQ ID NO: 1) and polymyxin B of the whole populations and 4 clones were determined by broth microdilution according to the Clinical and Laboratory Standards Instituted guidelines (CLSI 2019), in which each bacterial sample was tested in 2-fold increasing concentrations of each antibiotic. WLBU2 (SEQ ID NO: 1) was provided by Peptilogics (Peptilogics, Pittsburgh, PA) and polymyxin B was provided by Alfa Aesar (Alfa Aesar, Wardhill, Mass.). The experiments were performed with three replicates of the antibiotics.

[4] = tested on: ESKAPE (Enterococcus faecium, Staphylococcus aureus, Klebsiella pneumoniae, Acinetobacter baumannii, Pseudomonas aeruginosa and Enterobacter spp.) pathogens; conditions: in vitro and in vivo, even when protected by biofilms; cited from earlier work
[5] = tested on: A. baumannii ATCC 17978; experiment: Experimental evolution in increasing antibiotic concentrations, population survival; format: cell-based
Protocol: Experimental evolution: Three independent evolution experiments were conducted. The ancestor strains were propagated in a rich medium modified from M9 (“M9+”) containing 0.37 millmolar (mM) CaCl2), 8.7 mM MgSO4, 42.2 mM Na2HPO4, 22 mM KH2PO4, 21.7 mM NaCl, 18.7 mM NH4Cl and 0.2 grams per liter (g/L) glucose and supplemented with 20 milliliters per liter (mL/L) MEM essential amino acids (Gibco 11130051), 10 mL/L MEM nonessential amino acids (Gibco 11140050), and 10 mL each trace mineral solution A, B, and C (Corning 25021-3Cl).
In the first experiment, a single clone of A. baumannii ATCC 17978 and P. aeruginosa PA14 were selected and propagated independently for 24 hours in M9^+ in the absence of antibiotics. Each population was then sub-cultured into 10 replicate populations. Ten of the populations (5 planktonic and 5 biofilm) were propagated every 24 hours in increasing concentrations of WLBU2 (SEQ ID NO: 1) starting at 0.5× the minimum inhibitory concentration (MIC). The WLBU2 (SEQ ID NO: 1) was doubled after 72 hours until no population survived the treatment. As a control, the same number of strains were propagated (both planktonically and in biofilm) in the absence of antibiotics (e.g., WLBU2 (SEQ ID NO: 1)). Ten populations (5 planktonic and 5 biofilm) were propagated in increasing convention of the cationic peptide polymyxin B. […]
(§2) For identifying mechanisms of resistance to WLBU2 (SEQ ID NO: 1), laboratory strains of A. baumannii ATCC 17978 and P. aeruginosa PA14 that had no prior exposure to WLBU2 (SEQ ID NO: 1) were propagated. […] Two factors that increase the likelihood of developing resistance were determined to be: i) the mutation supply determined by population size and the mutation rate and ii) the strength of selection imposed by the antibiotic. […] In Table 2, the mean mutations per nucleotide and the cumulative probability of a mutation per nucleotide knowing the mutation rate was calculated using the length of the chromosome, the number of divisions/days, and the length of the exposure before facing inhibitory concentrations of antibiotic (WLBU2 (SEQ ID NO: 1)). […]

[6] = tested on: wild-type P. aeruginosa PA14; experiment: Experimental evolution with extended subinhibitory exposure, population survival; format: cell-based
Protocol: In the third experiment, 5 planktonic populations of the non-hypermutant laboratorial strain P. aeruginosa PA14 were propagated under subinhibitory concentrations of WLBU2 (SEQ ID NO: 1) for 10 days. The populations that survived the treatment with 1×MIC of WLBU2 (SEQ ID NO: 1) were propagated for 2 days.
as §1
Five planktonic populations of wild-type P. aeruginosa PA14 was propagated for 10 days under subinhibitory concentrations of WLBU2 (SEQ ID NO: 1), followed by 2 days at inhibitory concentrations. It was estimated the probability that any given nucleotide would be mutated during this regime was 0.74, with mean mutations per site of 1.52. […] Different colony morphologies were also detected within each population at the end of the experiment. […]

[7] = tested on: P. aeruginosa PA14; experiment: Experimental evolution in increasing WLBU2 concentrations (previously used protocol), population survival; format: cell-based
Protocol: Experimental evolution: Three independent evolution experiments were conducted. The ancestor strains were propagated in a rich medium modified from M9 (“M9+”) containing 0.37 millmolar (mM) CaCl2), 8.7 mM MgSO4, 42.2 mM Na2HPO4, 22 mM KH2PO4, 21.7 mM NaCl, 18.7 mM NH4Cl and 0.2 grams per liter (g/L) glucose and supplemented with 20 milliliters per liter (mL/L) MEM essential amino acids (Gibco 11130051), 10 mL/L MEM nonessential amino acids (Gibco 11140050), and 10 mL each trace mineral solution A, B, and C (Corning 25021-3Cl). […]
as §2

[8] = tested on: P. aeruginosa PA14 resistant clones (Sm, Wr, Sc); experiment: Aggregation assay of resistant clones; format: cell-based; conditions: presence (4 μg/ml) versus absence of WLBU2, settled 24 hours at 4° C.
Protocol: To determine the aggregation ability of the 4 clones selected in the subinhibitory experiment, two replicates (R1 and R2) of each clone and the ancestral strain were grown in 5 mL of M9^+ for 24 hours at 37 degrees Celsius (° C.) in a roller drum at 200 revolutions per minute (RPM). After 24 hours, the whole culture of each clone was transferred to a 13 mm glass tube, and the tubes were allowed to settle over 24 hours at 4° C. without shaking. Replicate 1 (R1) of each clone was vortexed for 30 seconds and the optical density at 600 nanometers (OD600) was measured. From R2, 200 μl of the upper fraction was carefully taken without vortexing and the OD600 was measured. The aggregation percentage was estimated as […]. This experiment was performed with five replicates both in the absence and presence (4 μg/ml) of WLBU2 (SEQ ID NO: 1).

[9] = five mutator populations per lifestyle
[10] = planktonic and biofilm, 3 days at 0.5x MIC before the MIC

Substance	activity against biofilms [1]	biofilm populations that survived the treatment [2, 9]	planktonic populations that survived the treatment [2, 9]	Populations that survived entire experiment (%) ([2]; hypermutator ancestor PA14 mutS: T114P, 3 days before inhibitory concentrations)	resistance level (MIC) of evolved populations versus WT [3]	effectiveness against ESKAPE pathogens [4]	populations that survived exposure of the MIC [5, 10]	Populations that survived entire experiment (%) ([6]; extended subinhibitory exposure, strain PA14, 10 days subinhibitory then 2 days inhibitory)	populations that survived the prolonged subinhibitory treatment ([6]; five planktonic populations, 10 days subinhibitory then 2 days inhibitory)	populations that survived exposure of the MIC [7, 10]	Populations that survived entire experiment (%) ([7]; previously used protocol, strain PA14, 3 days before inhibitory concentrations)	aggregation of Sm colonies relative to WT [8]	biofilm populations that survived in 4-times the MIC ([5]; biofilm lifestyle, increasing concentrations over 12 days)	planktonic populations that survived in 4-times the MIC ([5]; planktonic lifestyle, 5 populations, increasing concentrations over 12 days)
RRWVRRVRRVWRRVVRVVRRWVRR [WLBU2]	high activity	three	Two	50	significantly exceeded WT resistance	highly effective	no populations	40	two	no populations	0	only clustered more in the presence of the peptide		
polymyxin B													four out of the five	all
